# Patent US20080207455A1, “5,6-Dialkyl-7-Aminoazolopyrimidines, Their Preparation and Their Use for Controlling Harmful Fungi, and Compositions Comprising These Compounds” (BASF AKTINGESELLSCHAFT, priority 2005, published 2008)
# Legend:
# [1] = test system: Plasmopara viticola; test: Activity against peronospora of grapevines caused by Plasmopara viticola (protective leaf spray, potted vines); type: in vivo; details: comparison with the closest prior art, concentration not restated in the table, untreated 100
# Description: The mixture was then made up to 100 ml with water. This stock solution was diluted with the solvent/emulsifier/water mixture described to the concentration of active compounds stated below. Use example 1—Activity against peronospora of grapevines caused by Plasmopara viticola Leaves of potted vines were sprayed to runoff point with an aqueous suspension comprising 250 ppm of active compound. The next day, the undersides of the leaves were inoculated with an aqueous sporangia suspension of Plasmopara viticola. The vines were then initially placed in a water vapor-saturated chamber at 24° C. for 48 hours and then in a greenhouse at temperatures between 20 and 30° C. for five days. After this time, the plants were once more placed in a humid chamber for 16 hours to accelerate the eruption of sporangiophores. The extent of the development of the infection on the undersides of the leaves was then determined visually.
melting point,SMILES,Infection in % [1]
130 to 131 °C,CCCCCCCCCCc1c(CC)nc2cc(C)nn2c1N [Compound I-4],3%
–,"CCCCCCCCCCc1c(C)nc2cc(C)nn2c1N [Compound 28, reference compound]",40%
180 to 181 °C,"CCc1nc2nc(C)nn2c(N)c1CCC(C)CC(C)(C)C (stereo not shown) [Compound I-1, 5-ethyl-2-methyl-6-(3,5,5-trimethylhexyl)-[1,2,4]triazolo[1,5-a]pyrimidin-7-ylamine]",–
